Experimental data reported in patent US6352958B1, “Cycloimido-substituted benzofused heterocyclic herbicides” (FMC Corporation, priority 1997, dated 2002).

Tests used:
Assay type in all cases: in vivo
[1] = tested on: Johnsongrass (Sorghum halepense); test: Preemergence herbicidal activity, johnsongrass; conditions: Rate of Application 0.3 Kg/Ha, examined after 12-17 days
[2] = tested on: morningglory (Ipomea lacunosa or Ipomea hederacea); test: Preemergence herbicidal activity, morningglory; conditions: Rate of Application 0.3 Kg/Ha, examined after 12-17 days
[3] = tested on: field corn (Zea mays var. Pioneer 3732); test: Preemergence herbicidal activity, corn; conditions: Rate of Application 0.3 Kg/Ha, examined after 12-17 days
[4] = tested on: morningglory (Ipomea lacunosa or Ipomea hederacea); test: Postemergence herbicidal activity, morningglory; conditions: rate of application 0.3 Kg/Ha, rated after 12-17 days
[5] = tested on: common chickweed (Stellaria media); test: Preemergence herbicidal activity, chickweed; conditions: Rate of Application 0.3 Kg/Ha, examined after 12-17 days
[6] = tested on: blackgrass (Aloepecurus myosuroides); test: Postemergence herbicidal activity, blackgrass; conditions: rate of application 0.3 Kg/Ha, rated after 12-17 days
[7] = tested on: velvetleaf (Abutilon theophrasti); test: Postemergence herbicidal activity, velvetleaf; conditions: rate of application 0.3 Kg/Ha, rated after 12-17 days
[8] = tested on: green foxtail (Setaria viridis); test: Postemergence herbicidal activity, green foxtail; conditions: rate of application 0.3 Kg/Ha, rated after 12-17 days
[9] = tested on: common cocklebur (Xanthium strumarium L.); test: Preemergence herbicidal activity, cocklebur; conditions: Rate of Application 0.3 Kg/Ha, examined after 12-17 days
[10] = tested on: common chickweed (Stellaria media); test: Postemergence herbicidal activity, chickweed; conditions: rate of application 0.3 Kg/Ha, rated after 12-17 days
[11] = tested on: green foxtail (Setaria viridis); test: Preemergence herbicidal activity, green foxtail; conditions: Rate of Application 0.3 Kg/Ha, examined after 12-17 days
[12] = tested on: wheat (Triticum aestivum var. Lew); test: Preemergence herbicidal activity, wheat; conditions: Rate of Application 0.3 Kg/Ha, examined after 12-17 days
[13] = tested on: soybean (Glycine max var. Winchester); test: Postemergence herbicidal activity, soybean; conditions: rate of application 0.3 Kg/Ha, rated after 12-17 days
[14] = tested on: Johnsongrass (Sorghum halepense); test: Postemergence herbicidal activity, johnsongrass; conditions: rate of application 0.3 Kg/Ha, rated after 12-17 days
[15] = tested on: soybean (Glycine max var. Winchester); test: Preemergence herbicidal activity, soybean; conditions: Rate of Application 0.3 Kg/Ha, examined after 12-17 days
[16] = tested on: velvetleaf (Abutilon theophrasti); test: Preemergence herbicidal activity, velvetleaf; conditions: Rate of Application 0.3 Kg/Ha, examined after 12-17 days
[17] = tested on: field corn (Zea mays var. Pioneer 3732); test: Postemergence herbicidal activity, corn; conditions: rate of application 0.3 Kg/Ha, rated after 12-17 days
[18] = tested on: blackgrass (Aloepecurus myosuroides); test: Preemergence herbicidal activity, blackgrass; conditions: Rate of Application 0.3 Kg/Ha, examined after 12-17 days
[19] = tested on: common cocklebur (Xanthium strumarium L.); test: Postemergence herbicidal activity, cocklebur; conditions: rate of application 0.3 Kg/Ha, rated after 12-17 days
[20] = tested on: wheat (Triticum aestivum var. Lew); test: Postemergence herbicidal activity, wheat; conditions: rate of application 0.3 Kg/Ha, rated after 12-17 days

**Q.** Which results are given for CCOC(OCC)c1cc2c(Cl)cc(F)c(-n3c(=O)cc(C(F)(F)F)n(C)c3=O)c2o1 [Compound 245]?
**A.** PREEMERGENCE HERBICIDAL ACTIVITY (% CONTROL) SORHA [1]: 80%; PREEMERGENCE HERBICIDAL ACTIVITY (% CONTROL) IPOSS [2]: 100%; PREEMERGENCE HERBICIDAL ACTIVITY (% CONTROL) CRN [3]: 80%; Postemergence herbicidal activity (% control) IPOSS [4]: 100%; PREEMERGENCE HERBICIDAL ACTIVITY (% CONTROL) STEME [5]: 90%; Postemergence herbicidal activity (% control) ALOMY [6]: 50%; Postemergence herbicidal activity (% control) ABUTH [7]: 100%; Postemergence herbicidal activity (% control) SETVI [8]: 70%; PREEMERGENCE HERBICIDAL ACTIVITY (% CONTROL) XANPE [9]: 100%; Postemergence herbicidal activity (% control) STEME [10]: 60%; PREEMERGENCE HERBICIDAL ACTIVITY (% CONTROL) SETVI [11]: 100%; PREEMERGENCE HERBICIDAL ACTIVITY (% CONTROL) WHT [12]: 60%; Postemergence herbicidal activity (% control) SOY [13]: 85%; Postemergence herbicidal activity (% control) SORHA [14]: 70%; PREEMERGENCE HERBICIDAL ACTIVITY (% CONTROL) SOY [15]: 100%; PREEMERGENCE HERBICIDAL ACTIVITY (% CONTROL) ABUTH [16]: 100%; Postemergence herbicidal activity (% control) CRN [17]: 75%; PREEMERGENCE HERBICIDAL ACTIVITY (% CONTROL) ALOMY [18]: 70%; Postemergence herbicidal activity (% control) XANPE [19]: 70%; Postemergence herbicidal activity (% control) WHT [20]: 40%

**Q.** How did the “PREEMERGENCE HERBICIDAL ACTIVITY (% CONTROL) SORHA” value [1] turn out when COC(C)(C)c1cc2c(Cl)ccc(-n3c(=O)cc(C(F)(F)F)n(C)c3=O)c2o1 [Compound 251] was run?
**A.** The value was 100%.

**Q.** And the “PREEMERGENCE HERBICIDAL ACTIVITY (% CONTROL) IPOSS” value [2]?
**A.** Its value is 100%.

**Q.** What about the “PREEMERGENCE HERBICIDAL ACTIVITY (% CONTROL) CRN” value [3] of the same molecule?
**A.** Its value is 95%.

**Q.** What about the “Postemergence herbicidal activity (% control) IPOSS” value [4] of the same molecule?
**A.** Its value is 100%.

**Q.** What about the “PREEMERGENCE HERBICIDAL ACTIVITY (% CONTROL) STEME” value [5] of the same molecule?
**A.** Its value is 95%.

**Q.** And the “Postemergence herbicidal activity (% control) ALOMY” value [6]?
**A.** The value was 100%.

**Q.** What about the “Postemergence herbicidal activity (% control) ABUTH” value [7] of the same molecule?
**A.** Its value is 100%.

**Q.** What about the “Postemergence herbicidal activity (% control) SETVI” value [8] of the same molecule?
**A.** The value was 100%.

**Q.** And the “PREEMERGENCE HERBICIDAL ACTIVITY (% CONTROL) XANPE” value [9]?
**A.** The value was 100%.

**Q.** What about the “Postemergence herbicidal activity (% control) STEME” value [10] of the same molecule?
**A.** The value was 100%.

**Q.** What about the “PREEMERGENCE HERBICIDAL ACTIVITY (% CONTROL) SETVI” value [11] of the same molecule?
**A.** Its value is 100%.

**Q.** What about the “PREEMERGENCE HERBICIDAL ACTIVITY (% CONTROL) WHT” value [12] of the same molecule?
**A.** The value was 90%.

**Q.** What about the “Postemergence herbicidal activity (% control) SOY” value [13] of the same molecule?
**A.** The value was 95%.

**Q.** And the “Postemergence herbicidal activity (% control) SORHA” value [14]?
**A.** The value was 95%.

**Q.** And the “PREEMERGENCE HERBICIDAL ACTIVITY (% CONTROL) SOY” value [15]?
**A.** Its value is 90%.

**Q.** What about the “PREEMERGENCE HERBICIDAL ACTIVITY (% CONTROL) ABUTH” value [16] of the same molecule?
**A.** Its value is 100%.

**Q.** What about the “Postemergence herbicidal activity (% control) CRN” value [17] of the same molecule?
**A.** Its value is 90%.

**Q.** And the “PREEMERGENCE HERBICIDAL ACTIVITY (% CONTROL) ALOMY” value [18]?
**A.** Its value is 90%.

**Q.** And the “Postemergence herbicidal activity (% control) XANPE” value [19]?
**A.** Its value is 95%.

**Q.** What about the “Postemergence herbicidal activity (% control) WHT” value [20] of the same molecule?
**A.** The value was 70%.

**Q.** For CCN(CC)Cc1cc2c(Cl)ccc(-n3c(=O)cc(C(F)(F)F)n(C)c3=O)c2o1 [Compound 257], which “PREEMERGENCE HERBICIDAL ACTIVITY (% CONTROL) SORHA” value [1] is on record?
**A.** Its value is 10%.

**Q.** What about the “PREEMERGENCE HERBICIDAL ACTIVITY (% CONTROL) IPOSS” value [2] of the same molecule?
**A.** The value was 70%.

**Q.** And the “PREEMERGENCE HERBICIDAL ACTIVITY (% CONTROL) CRN” value [3]?
**A.** The value was 10%.

**Q.** And the “Postemergence herbicidal activity (% control) IPOSS” value [4]?
**A.** Its value is 60%.

**Q.** And the “PREEMERGENCE HERBICIDAL ACTIVITY (% CONTROL) STEME” value [5]?
**A.** Its value is 0%.

**Q.** What about the “Postemergence herbicidal activity (% control) ALOMY” value [6] of the same molecule?
**A.** Its value is 30%.

**Q.** What about the “Postemergence herbicidal activity (% control) ABUTH” value [7] of the same molecule?
**A.** Its value is 100%.

**Q.** What about the “Postemergence herbicidal activity (% control) SETVI” value [8] of the same molecule?
**A.** The value was 70%.

**Q.** And the “PREEMERGENCE HERBICIDAL ACTIVITY (% CONTROL) XANPE” value [9]?
**A.** The value was 20%.

**Q.** And the “Postemergence herbicidal activity (% control) STEME” value [10]?
**A.** The value was 30%.

**Q.** What about the “PREEMERGENCE HERBICIDAL ACTIVITY (% CONTROL) SETVI” value [11] of the same molecule?
**A.** The value was 70%.

**Q.** And the “PREEMERGENCE HERBICIDAL ACTIVITY (% CONTROL) WHT” value [12]?
**A.** Its value is 0%.

**Q.** What about the “Postemergence herbicidal activity (% control) SOY” value [13] of the same molecule?
**A.** Its value is 70%.

**Q.** And the “Postemergence herbicidal activity (% control) SORHA” value [14]?
**A.** The value was 50%.

**Q.** And the “PREEMERGENCE HERBICIDAL ACTIVITY (% CONTROL) SOY” value [15]?
**A.** The value was 40%.

**Q.** What about the “PREEMERGENCE HERBICIDAL ACTIVITY (% CONTROL) ABUTH” value [16] of the same molecule?
**A.** The value was 90%.

**Q.** And the “Postemergence herbicidal activity (% control) CRN” value [17]?
**A.** The value was 70%.

**Q.** And the “PREEMERGENCE HERBICIDAL ACTIVITY (% CONTROL) ALOMY” value [18]?
**A.** Its value is 20%.

**Q.** And the “Postemergence herbicidal activity (% control) XANPE” value [19]?
**A.** Its value is 70%.

**Q.** What about the “Postemergence herbicidal activity (% control) WHT” value [20] of the same molecule?
**A.** Its value is 20%.
